The source of these data is patent US12630530B2, “FGFR inhibitor compound and use thereof” (HENAN MEDINNO PHARMACEUTICAL TECHNOLOGY CO., LTD., priority 2020, dated 2026).

Some results are limits rather than exact numbers.

What is called IC50 is the concentration that inhibits the measured activity by half.

Common to all, as to assay type: biochemical
Assay [1] addresses T1, FGFR1 V561M (Homo sapiens, UniProt P11362, V561M).
T1 construct: purchased Signalchem F04-13G
As to the kind of experiment: Assay I: inhibitory activity against FGFR mutants (HTRF KinEASE-TK). The following applies: Table 1; ATP working concentration 5 μM, substrate TK 1 μM. On the procedure: (§1) Assay I: Determination of Inhibitory Activity Against FGFR Mutants
(§2) 1×Kinase reaction buffer was formulated with 1×volume of 5× kinase reaction buffer and 4×volume of water; 5 mM MgCl2; and 1 mM DTT.
(§3) 2.3 Screening of Compounds: • 1. […] Adding 1 μl of the compound diluted in buffer to each well, sealing the plate with a sealing membrane and centrifuging the plate at 1000 g for 30 seconds and leaving it at room temperature for 10 minutes. • 6. Formulating 2.5×TK-substrate-biotin and ATP mixture with 1× enzyme reaction buffer and adding 2 μl of K-substrate-biotin/ATP mixture to the reaction plate. • 7. Sealing the plate with a sealing membrane and centrifuging the plate at 1000 g for 30 seconds and allowing it to react at room temperature for 50 minutes. • 8. […] 3. Data Analysis
(§4) 3.3 Calculation of IC50 and plotting of inhibition curves for the compounds.
(§5) The IC50 (half inhibition concentration) of a compound was obtained using the following non-linear fitting equation, wherein data analysis was performed using Graphpad 6.0 software.
(§6) Data were exported from Envision and analyzed manually. The ratios were converted to inhibition rates and IC50 was calculated by Prism GraphPad 6.0 from the inhibition rates. IC50 was calculated again by the ratios to verify accuracy of the results.

The target of assay [2] is T2, FGFR2 V564F (Homo sapiens, UniProt P21802, V564F).
T2 construct: purchased Signalchem F05-12FG
T2 sequence (P21802 22-821 V564F): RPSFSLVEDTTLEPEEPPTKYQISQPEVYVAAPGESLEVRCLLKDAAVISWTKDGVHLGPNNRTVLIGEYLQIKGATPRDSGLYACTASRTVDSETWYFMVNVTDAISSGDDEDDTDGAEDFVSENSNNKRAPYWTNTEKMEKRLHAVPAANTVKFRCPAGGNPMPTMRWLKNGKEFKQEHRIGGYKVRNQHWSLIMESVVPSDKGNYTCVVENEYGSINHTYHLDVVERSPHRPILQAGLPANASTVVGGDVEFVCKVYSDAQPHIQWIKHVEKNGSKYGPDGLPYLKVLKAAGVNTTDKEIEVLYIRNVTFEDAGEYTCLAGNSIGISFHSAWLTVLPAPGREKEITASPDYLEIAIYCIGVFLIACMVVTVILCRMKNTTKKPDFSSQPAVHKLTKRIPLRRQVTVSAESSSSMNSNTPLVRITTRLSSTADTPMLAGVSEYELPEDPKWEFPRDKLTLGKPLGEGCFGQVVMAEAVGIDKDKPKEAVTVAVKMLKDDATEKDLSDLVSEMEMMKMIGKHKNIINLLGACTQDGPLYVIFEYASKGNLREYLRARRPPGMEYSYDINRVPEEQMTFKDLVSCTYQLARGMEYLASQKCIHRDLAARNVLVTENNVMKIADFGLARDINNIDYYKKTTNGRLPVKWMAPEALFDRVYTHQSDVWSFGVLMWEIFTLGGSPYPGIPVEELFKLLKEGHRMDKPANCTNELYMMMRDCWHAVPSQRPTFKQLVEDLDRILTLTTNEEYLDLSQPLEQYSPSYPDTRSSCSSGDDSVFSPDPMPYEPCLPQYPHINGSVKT
Described as above. The following applies: Table 1; ATP working concentration 10 μM, substrate TK 1 μM. The procedure: as §1, §2, §3, §4, §5, §6

For assay [3], the target named is T3, VEGFR2 (Homo sapiens, UniProt P35968).
T3 construct: purchased Carna 08-191
T3 sequence (P35968 20-1356): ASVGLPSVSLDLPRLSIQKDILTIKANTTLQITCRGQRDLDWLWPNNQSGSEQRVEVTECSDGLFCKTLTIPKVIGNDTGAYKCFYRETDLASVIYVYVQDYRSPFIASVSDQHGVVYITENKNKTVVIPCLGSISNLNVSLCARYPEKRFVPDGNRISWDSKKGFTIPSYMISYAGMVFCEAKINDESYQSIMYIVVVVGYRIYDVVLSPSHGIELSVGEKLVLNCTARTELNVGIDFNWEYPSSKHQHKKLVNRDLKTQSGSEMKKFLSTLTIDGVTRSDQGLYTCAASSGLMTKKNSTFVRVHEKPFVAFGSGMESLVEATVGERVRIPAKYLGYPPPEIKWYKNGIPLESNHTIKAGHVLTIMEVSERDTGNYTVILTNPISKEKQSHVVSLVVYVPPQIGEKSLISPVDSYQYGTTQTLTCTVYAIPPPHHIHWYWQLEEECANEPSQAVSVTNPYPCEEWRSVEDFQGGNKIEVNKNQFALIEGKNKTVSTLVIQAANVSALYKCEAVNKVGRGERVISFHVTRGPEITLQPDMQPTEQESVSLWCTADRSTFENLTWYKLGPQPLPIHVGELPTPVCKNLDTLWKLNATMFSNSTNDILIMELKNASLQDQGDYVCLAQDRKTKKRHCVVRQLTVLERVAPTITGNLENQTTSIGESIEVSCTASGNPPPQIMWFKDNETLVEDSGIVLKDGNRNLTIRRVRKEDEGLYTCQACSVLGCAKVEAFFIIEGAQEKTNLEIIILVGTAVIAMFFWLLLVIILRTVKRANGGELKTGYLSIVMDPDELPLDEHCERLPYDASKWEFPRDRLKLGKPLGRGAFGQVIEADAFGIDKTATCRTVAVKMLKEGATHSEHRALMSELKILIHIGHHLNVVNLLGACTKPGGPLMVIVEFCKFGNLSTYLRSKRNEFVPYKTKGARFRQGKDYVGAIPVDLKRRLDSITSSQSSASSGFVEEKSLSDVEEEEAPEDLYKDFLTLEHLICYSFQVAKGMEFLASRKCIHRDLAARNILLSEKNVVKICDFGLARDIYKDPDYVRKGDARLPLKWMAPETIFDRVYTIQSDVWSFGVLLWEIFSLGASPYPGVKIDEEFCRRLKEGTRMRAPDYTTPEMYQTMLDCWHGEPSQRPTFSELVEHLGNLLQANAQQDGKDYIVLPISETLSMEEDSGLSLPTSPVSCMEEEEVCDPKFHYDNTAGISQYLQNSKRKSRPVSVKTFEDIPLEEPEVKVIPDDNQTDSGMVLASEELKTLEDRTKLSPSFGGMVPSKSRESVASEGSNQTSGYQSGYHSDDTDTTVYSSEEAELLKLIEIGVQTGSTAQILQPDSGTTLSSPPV
As to the kind of experiment: Assay I: kinase inhibition (HTRF KinEASE-TK), VEGFR2. As to conditions: Table 1; ATP working concentration 5 μM, substrate TK 1 μM. (TR-FRET usually uses a lanthanide donor and a delayed reading to cut background.)

Assay [4] addresses T4, FGFR3 (Homo sapiens, UniProt P22607).
T4 construct: purchased Carna 08-135
As to the kind of experiment: Assay II: inhibitory activity against wild-type FGFR (HTRF KinEASE-TK). As to conditions: Table 2, ATP working concentration 50 μM, substrate TK 1 μM. On the procedure:
(§7) Assay II: Determination of inhibitory activity against wild-type FGFR
as §2
(§8) 3. Formulating 2×FGFR1/FGFR2/FGFR3 with 1× of enzyme reaction buffer.
(§9) 4. Adding 2 μl FGFR1/FGFR2/FGFR3 kinase (formulated in step 3) to each well of the reaction plate.
(§10) 5. Adding 1 μl of the compound diluted in buffer to each well, sealing the plate with a sealing membrane and centrifuging the plate at 1000 g for 30 seconds and leaving it at room temperature for 10 minutes.
(§11) 6. Formulating 2.5×TK-substrate-biotin and ATP mixture with 1× enzyme reaction buffer and adding 2 μl of K-substrate-biotin/ATP mixture to the reaction plate.
(§12) 7. Sealing the plate with a sealing membrane and centrifuging the plate at 1000 g for 30 seconds and allowing it to react at room temperature for 50 minutes.
as §4, §5, §6

Assay [5] deals with T5, FGFR1 (Homo sapiens, UniProt P11362).
T5 construct: purchased Carna 08-133
T5 sequence (P11362 22-822): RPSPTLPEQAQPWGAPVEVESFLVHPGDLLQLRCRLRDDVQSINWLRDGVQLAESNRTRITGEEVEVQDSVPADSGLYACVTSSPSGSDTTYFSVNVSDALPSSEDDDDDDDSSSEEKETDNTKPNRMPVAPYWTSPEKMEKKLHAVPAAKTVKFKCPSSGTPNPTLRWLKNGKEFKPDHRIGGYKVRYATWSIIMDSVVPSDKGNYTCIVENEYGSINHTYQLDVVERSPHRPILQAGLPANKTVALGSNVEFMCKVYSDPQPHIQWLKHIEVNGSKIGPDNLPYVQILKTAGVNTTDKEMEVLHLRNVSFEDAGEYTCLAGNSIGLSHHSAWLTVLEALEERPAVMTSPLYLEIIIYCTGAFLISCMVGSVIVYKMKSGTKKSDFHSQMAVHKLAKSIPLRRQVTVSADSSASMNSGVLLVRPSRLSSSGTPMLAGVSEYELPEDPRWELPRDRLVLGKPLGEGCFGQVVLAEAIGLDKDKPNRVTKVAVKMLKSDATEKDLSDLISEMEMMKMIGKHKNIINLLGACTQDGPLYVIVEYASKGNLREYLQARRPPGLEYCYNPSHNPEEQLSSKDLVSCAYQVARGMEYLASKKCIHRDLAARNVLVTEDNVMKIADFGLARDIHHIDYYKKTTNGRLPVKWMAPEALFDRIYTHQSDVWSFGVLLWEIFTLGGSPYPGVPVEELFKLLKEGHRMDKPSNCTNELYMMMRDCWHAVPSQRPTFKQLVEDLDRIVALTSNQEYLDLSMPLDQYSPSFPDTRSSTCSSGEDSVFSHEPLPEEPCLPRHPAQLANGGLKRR
The description is as above. The following applies: Table 2, ATP working concentration 50 μM, substrate TK 1 μM. On the procedure: as §7, §2, §8, §9, §10, §11, §12, §4, §5, §6

Assay [6] addresses T6, FGFR2 (Homo sapiens, UniProt P21802).
T6 construct: purchased Carna 08-134
The description is as above. As to conditions: Table 2, ATP working concentration 50 μM, substrate TK 1 μM. On the procedure: as §7, §2, §8, §9, §10, §11, §12, §4, §5, §6

The target in assay [7] is T7, FGFR3 V555M (Homo sapiens, UniProt P22607, V555M).
T7 construct: purchased Signalchem F06-12GG
T7 sequence (P22607 23-806 V555M): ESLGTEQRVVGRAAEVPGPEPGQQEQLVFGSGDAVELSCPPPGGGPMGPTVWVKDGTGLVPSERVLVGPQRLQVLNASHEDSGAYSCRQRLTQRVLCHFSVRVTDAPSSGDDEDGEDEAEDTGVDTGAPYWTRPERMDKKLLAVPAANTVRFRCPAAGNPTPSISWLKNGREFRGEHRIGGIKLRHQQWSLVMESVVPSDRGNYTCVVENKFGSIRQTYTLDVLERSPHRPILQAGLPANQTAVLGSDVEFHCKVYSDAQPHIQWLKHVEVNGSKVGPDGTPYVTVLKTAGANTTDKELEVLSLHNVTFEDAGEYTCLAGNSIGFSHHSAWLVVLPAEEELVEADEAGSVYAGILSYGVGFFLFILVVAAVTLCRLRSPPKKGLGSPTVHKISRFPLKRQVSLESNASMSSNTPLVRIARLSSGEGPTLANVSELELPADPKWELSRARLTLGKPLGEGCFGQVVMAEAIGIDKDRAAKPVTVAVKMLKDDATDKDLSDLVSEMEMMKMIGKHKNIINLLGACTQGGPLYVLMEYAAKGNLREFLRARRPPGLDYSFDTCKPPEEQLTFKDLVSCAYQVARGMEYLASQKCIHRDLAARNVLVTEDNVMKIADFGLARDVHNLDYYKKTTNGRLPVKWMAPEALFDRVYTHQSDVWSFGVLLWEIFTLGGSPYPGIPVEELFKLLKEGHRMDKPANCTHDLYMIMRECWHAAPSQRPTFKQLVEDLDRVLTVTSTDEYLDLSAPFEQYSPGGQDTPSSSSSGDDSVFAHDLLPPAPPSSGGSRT
As to the kind of experiment: Assay I: inhibitory activity against FGFR mutants (HTRF KinEASE-TK). As to conditions: Table 1; ATP working concentration 20 μM, substrate TK 1 μM. The procedure:
as §1, §2
2.3 Screening of Compounds: • 1. Diluting a compound 4-fold in a dilution plate with DMSO, with a starting compound concentration of 2 mM (4 mM for Nentedanib). • 2. Diluting the compound 40-fold into 1× kinase reaction buffer and shaking it on a shaker for 20 minutes. • 3. […] Adding 1 μl of the compound diluted in buffer to each well, sealing the plate with a sealing membrane and centrifuging the plate at 1000 g for 30 seconds and leaving it at room temperature for 10 minutes. • 6. Formulating 2.5×TK-substrate-biotin and ATP mixture with 1× enzyme reaction buffer and adding 2 μl of K-substrate-biotin/ATP mixture to the reaction plate. • 7. Sealing the plate with a sealing membrane and centrifuging the plate at 1000 g for 30 seconds and allowing it to react at room temperature for 50 minutes. • 8. Formulating 4×Sa-XL 665 (250 nM) with HTRF assay buffer. • 9. Adding 5 μl Sa-XL 665 and 5 μl TK-Antibody-Cryptate to each well, centrifuging it at 1000 g for 30 seconds, and allowing it to react for 1 hour at room temperature. • 10. Reading fluorescence signals at 615 nm (Cryptate) and 665 nm (XL665) with Biotek. 3. Data Analysis
3.1 Calculation of the ratio for each well: the ratio was calculated as 665/615 nm.
as §4, §5, §6

T6 sequence (P21802 22-821): as the sequence (P21802 22-821 V564F) above, with F543V counted along it
T4 sequence (P22607 23-806): as the sequence (P22607 23-806 V555M) above, with M533V counted along it
T1 sequence (P11362 22-822 V561M): as the sequence (P11362 22-822) above, with V540M counted along it

Turning to `C[C@@H](Oc1ccc2[nH]nc(C(=O)Nc3cnn(CCO)c3)c2c1)c1c(Cl)cncc1Cl` [Compound 7, (R)-5-(1-(3,5-dichloropyridin-4-yl)ethoxy)-N-(1-(2-hydroxyethyl)-1H-pyrazol-4-yl)-1H-indazole-3-carboxamide], the IC50 is 5.2 nM in assay [1]; 0.42 nM in assay [2]; 97.6 nM in assay [3]; 42.6 nM in assay [4]; 27.5 nM in assay [5]; 7.6 nM in assay [6]. The compound also returned a half-maximal inhibitory concentration (IC50) in assay [7] of 0.73 nM.
Take `CC(Oc1ccc2[nH]nc(C(=O)Nc3cnn(C4CC(O)C4)c3)c2c1)c1c(Cl)cncc1Cl` (stereo not drawn) [Compound 12, 5-(1-(3,5-dichloropyridin-4-yl)ethoxy)-N-(1-(3-hydroxycyclobutyl)-1H-pyrazol-4-yl)-1H-indazole-3-carboxamide]: the IC50 was determined as 1.9 nM in assay [1]; 0.48 nM in assay [2]; 208 nM in assay [3]; 42.9 nM in assay [4]; 45.1 nM in assay [5]; 24.5 nM in assay [6]. Besides, in assay [7], the IC50 stood at 0.74 nM.
`CC(Oc1ccc2[nH]nc(C(=O)Nc3cnn(C4CCN(C)CC4)c3)c2c1)c1c(Cl)cncc1Cl` (stereo not drawn) [Compound 14, 5-(1-(3,5-dichloropyridin-4-yl)ethoxy)-N-(1-(1-methylpiperidin-4-yl)-1H-pyrazol-4-yl)-1H-indazole-3-carboxamide]: the IC50 is 0.47 nM in assay [1]; 0.14 nM in assay [2]; 24.7 nM in assay [3]; 19.2 nM in assay [4]; 11.1 nM in assay [5]; 9.5 nM in assay [6]. The same compound displayed an IC50 in assay [7] of 0.27 nM.
As to `CC(Oc1ccc2[nH]nc(C(=O)Nc3cnn(CCC4(O)CC4)c3)c2c1)c1c(Cl)cncc1Cl` (stereo not drawn) [Compound 15, 5-(1-(3,5-dichloropyridin-4-yl)ethoxy)-N-(1-(2-(1-hydroxycyclopropyl)ethyl)-1H-pyrazol-4-yl)-1H-indazole-3-carboxamide], the IC50 amounted to 2.2 nM in assay [1], 0.84 nM in assay [2], 66.2 nM in assay [3] and 2.1 nM in assay [7].
In the case of `CC(Oc1ccc2[nH]nc(C(=O)Nc3ccc(N4CCN(C)CC4)cc3)c2c1)c1c(Cl)cncc1Cl` (stereo not drawn) [Compound 9, 5-(1-(3,5-dichloropyridin-4-yl)ethoxy)-N-(4-(4-methylpiperazin-1-yl)phenyl)-1H-indazole-3-carboxamide], the 50% inhibitory concentration (IC50) in assay [1] came to 1 nM; in assay [2], 0.94 nM; in assay [3], 152 nM; in assay [4], 102 nM; in assay [5] it was 61 nM; in assay [6] it was 48.7 nM. In addition, half-maximal inhibition in assay [7] (IC50) required 1.1 nM.
Turning to `CC(Oc1ccc2[nH]nc(C(=O)Nc3ccc(N4C[C@@H](C)N[C@@H](C)C4)cn3)c2c1)c1c(Cl)cncc1Cl` (stereo partly drawn) [Compound 16, 5-(1-(3,5-dichloropyridin-4-yl)ethoxy)-N-(5-((3S, 5R)-3,5-dimethylpiperazin-1-yl)pyridin-2-yl)-1H-indazole-3-carboxamide], the IC50 in assay [1] came to 22.8 nM; in assay [2], 34.1 nM; in assay [3] it was 1210 nM; in assay [7] it was 41.7 nM.
For the compound `CC(Oc1ccc2[nH]nc(C(=O)Nc3cnn(CC4CCN(C)CC4)c3)c2c1)c1c(Cl)cncc1Cl` (stereo not drawn) [Compound 22], the IC50 in assay [1] came out at 0.91 nM; in assay [2], 0.6 nM; in assay [3], 179 nM; in assay [7] it was 0.79 nM.
Consider `CC(Oc1ccc2[nH]nc(C(=O)Nc3cnn(CCN4CCOCC4)c3)c2c1)c1c(Cl)cncc1Cl` (stereo not drawn) [Compound 19, 5-(1-(3,5-dichloropyridin-4-yl)ethoxy)-N-(1-(2-morpholinoethyl)-1H-pyrazol-4-yl)-1H-indazole-3-carboxamide], for which the half-inhibitory concentration (IC50) stood at 0.35 nM in assay [1], 0.24 nM in assay [2], 63.4 nM in assay [3] and 0.27 nM in assay [7].
Turning to `CC(Oc1ccc2[nH]nc(C(=O)Nc3cnn(C4CN(C)C4)c3)c2c1)c1c(Cl)cncc1Cl` (stereo not drawn) [Compound 21, 5-(1-(3,5-dichloropyridin-4-yl)ethoxy)-N-(1-(1-methylazetidin-3-yl)-1H-pyrazol-4-yl)-1H-indazole-3-carboxamide], the IC50 in assay [1] amounted to 0.27 nM; in assay [2] it was 0.09 nM; in assay [3], 39.4 nM; in assay [7] it was 0.15 nM.
On to `CC(Oc1ccc2[nH]nc(C(=O)Nc3ccc(N4C[C@@H](C)N[C@@H](C)C4)c(F)c3)c2c1)c1c(Cl)cncc1Cl` (stereo partly drawn) [Compound 17, 5-(1-(3,5-dichloropyridin-4-yl)ethoxy)-N-(4-((3S, 5R)-3,5-dimethylpiperazin-1-yl)-3-fluorophenyl)-1H-indazole-3-carboxamide], for which the concentration for half-maximal inhibition (IC50) in assay [1] is 8.6 nM; in assay [2], 2.3 nM; in assay [3], 173 nM; in assay [7] it was 6.9 nM.
As for `CCN1CCN(c2ccc(NC(=O)c3n[nH]c4ccc(OC(C)c5c(Cl)cncc5Cl)cc34)cc2)CC1` (stereo not drawn) [Compound 10, 5-(1-(3,5-dichloropyridin-4-yl)ethoxy)-N-(4-(4-ethylpiperazin-1-yl)phenyl)-1H-indazole-3-carboxamide], the IC50 is 1.7 nM in assay [1]; 3.2 nM in assay [2]; 1390 nM in assay [3]; 98.8 nM in assay [4]; 64.5 nM in assay [5]; 48 nM in assay [6]. The IC50 in assay [7] worked out at 2 nM.
With `CC(Oc1ccc2[nH]nc(C(=O)Nc3ccc(N4CCC(O)CC4)cc3)c2c1)c1c(Cl)cncc1Cl` (stereo not drawn) [Compound 13, 5-(1-(3,5-dichloropyridin-4-yl)ethoxy)-N-(4-(4-hydroxypiperidin-1-yl)phenyl)-1H-indazole-3-carboxamide], the IC50 in assay [1] was 6.8 nM; in assay [2], 8.9 nM; in assay [3], > 10000 nM; in assay [7], 5.9 nM.
For `CC(Oc1ccc2[nH]nc(C(=O)Nc3ccc(N4C[C@@H](C)N[C@@H](C)C4)nc3)c2c1)c1c(Cl)cncc1Cl` (stereo partly drawn) [Compound 8, 5-(1-(3,5-dichloropyridin-4-yl)ethoxy)-N-(6-((3S, 5R)-3,5-dimethylpiperazin-1-yl)pyridin-3-yl)-1H-indazole-3-carboxamide], the half-inhibitory concentration (IC50) in assay [1] is 2.3 nM; in assay [2], 4 nM; in assay [3], 224 nM; in assay [4] it was 106 nM; in assay [5], 69.7 nM; in assay [6], 58.6 nM. In assay [7], the IC50 stood at 2.6 nM.
Take `CC(Oc1ccc2[nH]nc(C(=O)Nc3cnn(CCC#N)c3)c2c1)c1c(Cl)cncc1Cl` (stereo not drawn) [Compound 11, N-(1-(2-cyanoethyl)-1H-pyrazol-4-yl)-5-(1-(3,5-dichloropyridin-4-yl)ethoxy)-1H-indazole-3-carboxamide]: the IC50 in assay [1] worked out at 5.6 nM; in assay [2] it was 1.1 nM; in assay [3], 230 nM; in assay [7], 1.7 nM.
In the case of `CCN1CCC(c2ccc(NC(=O)c3n[nH]c4ccc(OC(C)c5c(Cl)cncc5Cl)cc34)cc2)CC1` (stereo not drawn) [Compound 18, 5-(1-(3,5-dichloropyridin-4-yl)ethoxy)-N-(4-(1-ethylpiperidin-4-yl)phenyl)-1H-indazole-3-carboxamide], the IC50 in assay [1] turned out to be 1.6 nM; in assay [2], 0.63 nM; in assay [3] it was 141 nM; in assay [7], 1.1 nM.
